{
  "source": "patent US9834784B2",
  "about": "“Pest resistant plants” (Keygene N.V., priority 2011, dated 2017)",
  "molecules": {"B1": {"name": "ShZIS: 7-epizingiberene synthase protein from Solanum habrochaites, SEQ ID NO:1 (protein)", "chain": "CSHSTPSSMNGFEDARDRIRESFGKVELSPSSYDTAWVAMVPSKHSLNEPCFPQCLDWIIENQREDGSWGLNPSHPLLLKDSLSSTLACLLALTKWRVGDEQIKRGLGFIETQSWAIDNKDQISPLGFEIIFPSMIKSAEKLNLNLAINKRDSTIKRALQNEFTRNIEYMSEGFGELCDWKEIIKLHQRQNGSLFDSPATTAAALIYHQHDKKCYEYLNSILQQHKNWVPTMYPTKIHSLLCLVDTLQNLGVHRHFKSEIKKALDEIYRLWQQKNEEIFSNVTHCAMAFRLLRISYYDVSSDELAEFVDEEHFFATSGKYTSHVEILELHKASQLAIDHEKDDILDKINNWTRTFMEQKLLNNGFIDRMSKKEVELALRNFYIISDLAENRRYIKSYEENNFKILKAAYRSPNINNKDLFIFSIRDFELCQAQHQEELQQLKRWFEDCRLDQLGLSEQFISASYLCAIPIVPGPELSDARLVYAKYVMLLTIVDDHFESFASTDECLNIIELVERWDDYASVGYKSERVKVLFSMFYKSIEEIATIAEIKQGRSVKNHLINLWLKVMKLMLMERVEWCSGKTIPRIEEYLYVSSITFGSRLIPLTTQYFIGIKISKDLLESDEIYGLCNFTGIVLRLLNDLQDSKREQKEGSINLVTLLMKSISEEEAIMKMKEILEMKRRELFKMVLVQKKGSQLPQLCKEIFWRTCKWAHFTYSQTDRYRFPEEMENHIDEVFYKPLNH", "modifications": "Solanum habrochaites"}, "B2": {"name": "ObZIS: sweet lemon basil zingiberene synthase (Iijima et al., 2004), alpha-zingiberene synthase (protein, UniProt Q5SBP4 1-541, looked up)", "Alpha-zingiberene synthase": "MESRRSANYQASIWDDNFIQSLASPYAGEKYAEKAEKLKTEVKTMIDQTRDELKQLELIDNLQRLGICHHFQDLTKKILQKIYGEERNGDHQHYKEKGLHFTALRFRILRQDGYHVPQDVFSSFMNKAGDFEESLSKDTKGLVSLYEASYLSMEGETILDMAKDFSSHHLHKMVEDATDKRVANQIIHSLEMPLHRRVQKLEAIWFIQFYECGSDANPTLVELAKLDFNMVQATYQEELKRLSRWYEETGLQEKLSFARHRLAEAFLWSMGIIPEGHFGYGRMHLMKIGAYITLLDDIYDVYGTLEELQVLTEIIERWDINLLDQLPEYMQIFFLYMFNSTNELAYEILRDQGINVISNLKGLWVELSQCYFKEATWFHNGYTPTTEEYLNVACISASGPVILFSGYFTTTNPINKHELQSLERHAHSLSMILRLADDLGTSSDEMKRGDVPKAIQCFMNDTGCCEEEARQHVKRLIDAEWKKMNKDILMEKPFKNFCPTAMNLGRISMSFYEHGDGYGGPHSDTKKKMVSLFVQPMNITI"}},
  "key": {"[1]": {"tested_on": "adult whiteflies B. tabaci", "details": "Antonious et al. 2005; cited from earlier work"}, "[2]": {"tested_on": "fourth instar larvae of Colorado potato beetle", "details": "Antonious et al. 2005; cited from earlier work"}, "B. tabaci (biotype Q)": {"tested_on": "B. tabaci (biotype Q)", "test": "Clip cage bioassay B. tabaci (whitefly)", "type": "in vivo, Bemisia tabaci", "details": "clip cages, 20 adults, after 5 days; compared with S. lycopersicum C32", "procedure": "An interspecies cross between S. lycopersicum and S. habrochaites was performed and F2 lines were transferred to the greenhouse at the University of Amsterdam. The F2 plants were tested for their production of 7-epizingiberene. Cuttings were made of 7-epizingiberene producing F2 lines, S. lycopersicum C32 (moneymaker) and of S. habrochaites (PI127826). Both a parental line of the initial cross.\nTwo cuttings of genotypes PI127826 and C32 and the respective F2s received 4 clip cages, each of which contained 20 adult B. tabaci (biotype Q) initially collected in Almeria (Spain) and reared continuously on cucumber under laboratory conditions (see Bleeker et al., 2009—Plant Physiol.). After 5 days, the total number and percentage of dead flies and total nr of eggs (combined abaxial and adaxial side of leaves) was determined."}, "Tuta absoluta": {"tested_on": "Tuta absoluta", "test": "No-choice oviposition assay Tuta absoluta", "type": "in vivo", "details": "F2 plants, FIGS. 10A and 10B", "procedure": "Tuta absoluta (order: Lepidoptera) were reared on tomato (S. lycopersicum). A no-choice assay was performed for 7 days. 5 adults were allowed to oviposit their eggs on S. lycopersicum (C32) plants and on F2 plants arisen from an interspecies cross between S. lycopersicum (C32) and S. habrochaites (PI127826). After 7 days, Tuta abosoluta oviposition (number of eggs deposited) was determined on the abaxial and adaxial side of six leaves per plant genotype. F2 plants were characterized for 7-epizingiberene content after the assay and Tuta abosoluta oviposition (number of eggs deposited) was correlated to the content of 7-epizingiberene."}, "[3]": {"tested_on": "Bemisia tabaci whiteflies", "details": "cited from earlier work; for attractiveness of cultivated tomato to B. tabaci after addition of the compound: compared with neighbouring siblings, Bleeker et al. 2011; for repellent to Bemisia tabaci whiteflies: purified compounds, Bleeker et al., Phytochemistry 2011"}, "[4]": {"details": "isolated compound; previously observed by Bleeker et al. 2011; cited from earlier work"}, "[5]": {"test": "Enzyme activity assay with zFPP, products by enantioselective GC-MS", "type": "biochemical", "details": "heterologously expressed in E. coli; SPME, chiral column", "procedure": "The full length gene (comprising SEQ ID NO:4 5′ of SEQ ID NO:2 (SEQ ID NO:4-SEQ ID NO:2)) was cloned into the pGEX-KG expression vector (Guan and Dixon 1991). Constructs were transformed to C41 (DE3) E. coli cells (Dumon-Seignovert et al., 2004). As a control, empty pGEX-KG vector was transformed. A culture was grown to an OD600 of 0.5-0.6 at 37° C. and placed at 4° C. for 30 min. Protein expression was induced with 1 mM isopropyl β-D-1-thiogalactopyranoside (IPTG). After 16 hours incubation at 16° C., cells were harvested by centrifugation. The supernatant was removed and the pellet was resuspended in assay buffer (25 mM HEPES, pH 7.2, 10 mM MgCl2, 10% (v/v) glycerol) with added lysozyme (1 mg mL^−1) and proteinase inhibitors and incubated on ice for 30 minutes and subsequently sonicated. The lysate was centrifuged and the supernatant was stored at −80° C. Activity assays were performed in 500 μL 50 mM HEPES, pH7.2, 100 mM KCl, 7.5 mM MgCl2, 20 μM MgCl2, 5% (v/v) glycerol, 5 mM DTT with 50 μL protein and 2 mM cis-FPP(2Z-6Z-farnesyl diphosphate) as substrate. Enzyme products were analyzed by GC-MS with Solid Phase Micro Extraction fiber (SPME). Terpene products were identified using standards and comparing ion spectra, retention time and Kovats Index (see FIGS. 1 and 2). […]"}, "[6]": {"test": "Enzyme activity assay with E-E-FPP, products by enantioselective GC-MS", "type": "biochemical", "details": "heterologously expressed; SPME, chiral column", "procedure": "Activity assays were performed in 20 mL glass vials in a total volume of 500 μL 50 mM HEPES, pH7.2, 100 mM KCl, 7.5 mM MgCl2, 20 μM MgCl2, 5% (v/v) glycerol, 5 mM DTT with 50 μL protein and either 2 mM cis-FPP (2Z-6Z-farnesyl diphosphate), trans-FPP (E-E-farnesyl diphosphate), GPP (geranyl diphosphate), NDP (neryl diphosphate), or GGPP (geranylgeranyl diphosphate) as a substrate (Echelon Biosciences Incorporated, Salt Lake City, USA). Vials were closed with a teflon lined crimp cap immediately and incubated under moderate shaking for 1 hour at 30° C.\nEnzyme products were sampled with a Solid Phase Micro Extraction fiber (SPME) for 10 minutes after the vial had been agitated and heated to 50° C. The fiber was desorbed for 1 minute in an Optic injector port (ATAS GL Int. Zoeterwoude, NL) which was kept at 220° C. For liquid injection 1-3 μL of sample in hexane was injected.\nIn order to separate alpha-zingiberene from 7-epizingiberene the Astec CHIRALDEX™ B-DM column (30m×0.25 mm×0.12 μm film thickness; Supelco) was selected. The column was placed in an 6890 N gas chromatograph (Agilent, Amstelveen, NI). […] Helium was used as a carrier gas. Mass spectra were generated with the ion source set to −70V at 200° C. and collected with a Time-of-Flight MS (Leco, Pegasus III, St. Joseph, Mich., USA) at 1850 V, with an acquisition rate of 20 scans per second."}},
  "data": [
    {"molecule": "CCCCCCCCCCCC(C)=O", "note": "[2-tridecanone]", "values": [
      {"measurement": "toxic effect against adult whiteflies B. tabaci", "setting": "[1]", "result": "toxic effect"}
    ]},
    {"molecule": "CCCCCCCCCC(C)=O", "note": "[2-undecanone]", "values": [
      {"measurement": "toxic effect against fourth instar larvae of Colorado potato beetle", "setting": "[2]", "result": "toxic effect"}
    ]},
    {"molecule": "CC(C)=CCC[C@@H](C)[C@@H]1C=CC(C)=CC1", "note": "[7-epizingiberene]", "values": [
      {"measurement": "resistance to whiteflies (adult mortality and oviposition)", "setting": "B. tabaci (biotype Q)", "result": "enhances resistance to whiteflies"},
      {"measurement": "correlation of oviposition with 7-epizingiberene content", "setting": "Tuta absoluta", "result": "negatively correlated"},
      {"measurement": "attractiveness of cultivated tomato to B. tabaci after addition of the compound", "setting": "[3]", "result": "less attractive"},
      {"measurement": "repellent to Bemisia tabaci whiteflies", "setting": "[3]", "result": "act as repellent"},
      {"measurement": "stability when exposed to air", "setting": "[4]", "result": "spontaneously convert to R-curcumene"}
    ]},
    {"molecule": "CC(C)=CCC[C@@H](C)c1ccc(C)cc1", "note": "[R-curcumene]", "values": [
      {"measurement": "attractiveness of cultivated tomato to B. tabaci after addition of the compound", "setting": "[3]", "result": "less attractive"},
      {"measurement": "repellent to Bemisia tabaci whiteflies", "setting": "[3]", "result": "act as repellent"}
    ]},
    {"molecule": "CC(C)=CCC[C@H](C)c1ccc(C)cc1", "note": "[S-curcumene]", "values": [
      {"measurement": "repellent to Bemisia tabaci whiteflies", "setting": "[3]", "result": "do not"}
    ]},
    {"molecule": "CC(C)=CCC[C@H](C)[C@@H]1C=CC(C)=CC1", "note": "[alpha-zingiberene]", "values": [
      {"measurement": "repellent to Bemisia tabaci whiteflies", "setting": "[3]", "result": "do not"}
    ]},
    {"molecule": "B1", "values": [
      {"measurement": "product formed from Z-Z-FPP", "setting": "[5]", "result": "made 7-epizingiberene"}
    ]},
    {"molecule": "B2", "values": [
      {"measurement": "product formed from E-E-FPP", "setting": "[6]", "result": "made alpha-zingiberene"}
    ]}
  ]
}
